Test results: patent US9561231B2 (AbbVie Inc., priority 2012, dated 2017)

What was measured:
[1] = biological target: T1, first (BD1: amino acids K57-E168) bromodomain of BRD4 (Homo sapiens, UniProt O60885); experiment: TR-FRET bromodomain binding assay, BRD4 BD1; details: TR-FRET assay protocol (A-G, compound concentration range); Ki calculated from IC50, probe Kd and probe concentration; read-out: TR-FRET Binding Ki: BRD4 (BDI_K57-E168)
T1 construct: His-tagged first (BD1: amino acids K57-E168)
Procedure: (§1) A time-resolved fluorescence resonance energy transfer (TR-FRET) assay was used to determine the affinities of compounds of the Examples listed in Table 1 for each bromodomain of BRD4. His-tagged first (BD1: amino acids K57-E168) and second (BD2: amino acids E352-E168) bromodomains of BRD4 were expressed and purified. An Alexa647-labeled BET-inhibitor was used as the fluorescent probe in the assay.
(§2) Compound dilution series were prepared in DMSO via an approximately 3-fold serial dilution from one of the following:
(§3) or 5-fold serial dilution from one of the following:
(§4) Assay method A: 2.5 mM-800 nM
(§5) For Assay methods A, C, D, and F: Compounds were then diluted 6:100 in assay buffer (20 mM Sodium Phosphate, pH 6.0, 50 mM NaCl, 1 mM Ethylenediaminetetraacetic acid, 0.01% Triton X-100, 1 mM DL-Dithiothreitol) to yield 3× working solutions. […] of this solution were added to the assay plate to reach a final volume of 18 μL.
(§6) TR-FRET data were normalized to the means of 24 no-compound controls (“high”) and 8 controls containing 1 μM un-labeled probe (“low”). Percent inhibition was plotted as a function of compound concentration and the data were fit with the 4 parameter logistic equation to obtain IC50s. Inhibition constants (Ki) were calculated from the IC50s, probe Kd and probe concentration. Typical Z′ values were between 0.65 and 0.75.

[2] = biological target: T2, second (BD2: amino acids E352-E168) bromodomain of BRD4 (Homo sapiens, UniProt O60885); experiment: TR-FRET bromodomain binding assay, BRD4 BD2; details: TR-FRET assay protocol (A-G, compound concentration range); Ki calculated from IC50, probe Kd and probe concentration; read-out: TR-FRET Binding Ki: BRD4 (BDII_E352-M457)
T2 construct: protocol
Procedure: as §1, §2, §3, §4, §5, §6

Structure (SMILES)	Ki [1] [nM]	Ki [2] [nM]
Cn1nc(-c2ccccc2Oc2ccccc2)c(-c2ccc(C=O)cc2)cc1=O [Example 65, 4-[1-methyl-6-oxo-3-(2-phenoxyphenyl)-1,6-dihydropyridazin-4-yl]benzaldehyde]	797	140
Cn1nc(-c2ccccc2Oc2ccccc2)c(-c2ccc(C(O)C3CCCC3)cc2)cc1=O (stereo not drawn) [Example 74, 5-{4-[cyclopentyl(hydroxy)methyl]phenyl}-2-methyl-6-(2-phenoxyphenyl)pyridazin-3(2H)-one]	632	1050
Cn1nc(-c2ccccc2Oc2ccccc2)c(-c2ccc(C(O)c3ccccc3)cc2)cc1=O (stereo not drawn) [Example 76, 5-{4-[hydroxy(phenyl)methyl]phenyl}-2-methyl-6-(2-phenoxyphenyl)pyridazin-3(2H)-one]	755	1280
C=CCC(O)c1ccc(-c2cc(=O)n(C)nc2-c2ccccc2Oc2ccccc2)cc1 (stereo not drawn) [Example 77, 5-[4-(1-hydroxybut-3-en-1-yl)phenyl]-2-methyl-6-(2-phenoxyphenyl)pyridazin-3(2H)-one]	511	380
CC(=O)OCc1ccc(-c2cc(=O)n(C)nc2-c2ccccc2Oc2ccccc2)cc1 [Example 80, 4-[1-methyl-6-oxo-3-(2-phenoxyphenyl)-1,6-dihydropyridazin-4-yl]benzyl acetate]	708	439
Cn1nc(-c2ccccc2Oc2ccccc2)c(C2=CCNCC2)cc1=O [Example 82, 2-methyl-6-(2-phenoxyphenyl)-5-(1,2,3,6-tetrahydropyridin-4-yl)pyridazin-3(2H)-one]	4070	2480
CN1CC=C(c2cc(=O)n(C)nc2-c2ccccc2Oc2ccccc2)CC1 [Example 83, 2-methyl-5-(1-methyl-1,2,3,6-tetrahydropyridin-4-yl)-6-(2-phenoxyphenyl)pyridazin-3(2H)-one]	3610	6830
CC(=O)N1CC=C(c2cc(=O)n(C)nc2-c2ccccc2Oc2ccccc2)CC1 [Example 84, 5-(1-acetyl-1,2,3,6-tetrahydropyridin-4-yl)-2-methyl-6-(2-phenoxyphenyl)pyridazin-3(2H)-one]	1020	1010
Cn1nc(-c2ccccc2Oc2ccccc2)c(C2=CCN(S(C)(=O)=O)CC2)cc1=O [Example 85, 2-methyl-5-[1-(methylsulfonyl)-1,2,3,6-tetrahydropyridin-4-yl]-6-(2-phenoxyphenyl)pyridazin-3(2H)-one]	1610	791
Cn1nc(-c2ccccc2Oc2ccccc2)c(C2CCN(C(=O)OC(C)(C)C)CC2)cc1=O [Example 86, tert-butyl 4-[1-methyl-6-oxo-3-(2-phenoxyphenyl)-1,6-dihydropyridazin-4-yl]piperidine-1-carboxylate]	> 13000	2740
Cn1nc(-c2ccccc2Oc2ccccc2)c(C2CCNCC2)cc1=O [Example 87, 2-methyl-6-(2-phenoxyphenyl)-5-(piperidin-4-yl)pyridazin-3(2H)-one]	2010	3090
CC(=O)N1CCC(c2cc(=O)n(C)nc2-c2ccccc2Oc2ccccc2)CC1 [Example 89, 5-(1-acetylpiperidin-4-yl)-2-methyl-6-(2-phenoxyphenyl)pyridazin-3(2H)-one]	8100	3890
Cn1nc(-c2ccccc2Oc2ccccc2)c(C2CCN(S(C)(=O)=O)CC2)cc1=O [Example 90, 2-methyl-5-[1-(methylsulfonyl)piperidin-4-yl]-6-(2-phenoxyphenyl)pyridazin-3(2H)-one]	4550	2330
Cc1nnc(-c2ccc(-c3cc(=O)n(C)nc3-c3ccccc3Oc3ccccc3)cc2)o1 [Example 91, 2-methyl-5-[4-(5-methyl-1,3,4-oxadiazol-2-yl)phenyl]-6-(2-phenoxyphenyl)pyridazin-3(2H)-one]	> 238	238
Cn1nc(-c2ccccc2Oc2ccccc2)c(-c2ccc(Cc3ccccc3)cc2)cc1=O [Example 93, 5-(4-benzylphenyl)-2-methyl-6-(2-phenoxyphenyl)pyridazin-3(2H)-one]	> 13000	3240
Cn1nc(-c2ccccc2Oc2ccccc2)c(-c2ccc(CC#N)cc2)cc1=O [Example 94, {4-[1-methyl-6-oxo-3-(2-phenoxyphenyl)-1,6-dihydropyridazin-4-yl]phenyl}acetonitrile]	402	154
CC(C)Cc1ccc(-c2cc(=O)n(C)nc2-c2ccccc2Oc2ccccc2)cc1 [Example 96, 2-methyl-5-[4-(2-methylpropyl)phenyl]-6-(2-phenoxyphenyl)pyridazin-3(2H)-one]	8330	13400

Structure (SMILES)	Ki [1] [nM]	Ki [2] [nM]
CCOC(=O)Cc1ccc(-c2cc(=O)n(C)nc2-c2ccccc2Oc2ccccc2)cc1 [Example 97, ethyl{4-[1-methyl-6-oxo-3-(2-phenoxyphenyl)-1,6-dihydropyridazin-4-yl]phenyl}acetate]	561	176
COC(=O)c1ccc(-c2cc(=O)n(C)nc2-c2ccccc2Oc2ccccc2)cc1 [Example 102, methyl 4-[1-methyl-6-oxo-3-(2-phenoxyphenyl)-1,6-dihydropyridazin-4-yl]benzoate]	2600	960
Cn1nc(-c2ccccc2Oc2ccccc2)c(-c2ccncc2)cc1=O [Example 104, 2-methyl-6-(2-phenoxyphenyl)-5-(pyridin-4-yl)pyridazin-3(2H)-one]	1600	562
CC(=O)Nc1cccc(-c2cc(=O)n(C)nc2-c2ccccc2Oc2ccccc2)c1 [Example 106, N-{3-[1-methyl-6-oxo-3-(2-phenoxyphenyl)-1,6-dihydropyridazin-4-yl]phenyl}acetamide]	176	925
CCOc1ccc(-c2cc(=O)n(C)nc2-c2ccccc2Oc2ccccc2)cc1F [Example 107, 5-(4-ethoxy-3-fluorophenyl)-2-methyl-6-(2-phenoxyphenyl)pyridazin-3(2H)-one]	1760	2580
CN(C)C(=O)c1ccc(-c2cc(=O)n(C)nc2-c2ccccc2Oc2ccccc2)cc1 [Example 108, N,N-dimethyl-4-[1-methyl-6-oxo-3-(2-phenoxyphenyl)-1,6-dihydropyridazin-4-yl]benzamide]	410	327
CN(C)C(=O)c1cccc(-c2cc(=O)n(C)nc2-c2ccccc2Oc2ccccc2)c1 [Example 109, N,N-dimethyl-3-[1-methyl-6-oxo-3-(2-phenoxyphenyl)-1,6-dihydropyridazin-4-yl]benzamide]	1260	1530
CC(C)COc1cccc(-c2cc(=O)n(C)nc2-c2ccccc2Oc2ccccc2)c1 [Example 110, 2-methyl-5-[3-(2-methylpropoxy)phenyl]-6-(2-phenoxyphenyl)pyridazin-3(2H)-one]	> 13000	13500
CC(C)Oc1ccc(-c2cc(=O)n(C)nc2-c2ccccc2Oc2ccccc2)cc1F [Example 111, 5-[3-fluoro-4-(propan-2-yloxy)phenyl]-2-methyl-6-(2-phenoxyphenyl)pyridazin-3(2H)-one]	2470	1970
Cn1nc(-c2ccccc2Oc2ccccc2)c(-c2cnn(Cc3ccccc3)c2)cc1=O [Example 113, 5-(1-benzyl-1H-pyrazol-4-yl)-2-methyl-6-(2-phenoxyphenyl)pyridazin-3(2H)-one]	407	317
Cn1nc(-c2ccccc2Oc2ccccc2)c(-c2ccc(C(=O)NC3CC3)cc2)cc1=O [Example 114, N-cyclopropyl-4-[1-methyl-6-oxo-3-(2-phenoxyphenyl)-1,6-dihydropyridazin-4-yl]benzamide]	328	184
Cc1n[nH]c(C)c1-c1cc(=O)n(C)nc1-c1ccccc1Oc1ccccc1 [Example 115, 5-(3,5-dimethyl-1H-pyrazol-4-yl)-2-methyl-6-(2-phenoxyphenyl)pyridazin-3(2H)-one]	11100	6940
COc1ccc(-c2cc(=O)n(C)nc2-c2ccccc2Oc2ccccc2)cn1 [Example 116, 5-(6-methoxypyridin-3-yl)-2-methyl-6-(2-phenoxyphenyl)pyridazin-3(2H)-one]	1050	553
CCOc1ccc(-c2cc(=O)n(C)nc2-c2ccccc2Oc2ccccc2)cc1 [Example 117, 5-(4-ethoxyphenyl)-2-methyl-6-(2-phenoxyphenyl)pyridazin-3(2H)-one]	1490	619
Cn1nc(-c2ccccc2Oc2ccccc2)c(-c2cncc3ccccc23)cc1=O [Example 118, 5-(isoquinolin-4-yl)-2-methyl-6-(2-phenoxyphenyl)pyridazin-3(2H)-one]	> 13000	17200
Cn1nc(-c2ccccc2Oc2ccccc2)c(-c2cccc(NS(C)(=O)=O)c2)cc1=O [Example 120, N-{3-[1-methyl-6-oxo-3-(2-phenoxyphenyl)-1,6-dihydropyridazin-4-yl]phenyl}methanesulfonamide]	611	1190
